{"source": "ChEMBL document CHEMBL5678796", "about": "“A highly potent and selective farnesyltransferase inhibitor ABT-100 in preclinical studies” (Anticancer Drugs, 2005)", "key": {"[1]": {"assay": "Oral bioavailability in dog at 2.5 mg/kg", "format": "ADME, organism-based, Canis lupus familiaris", "settings": "in vivo"}, "[2]": {"assay": "Clearance in dog at 2.5 mg/kg, iv", "format": "ADME, organism-based, Canis lupus familiaris", "settings": "in vivo"}, "[3]": {"assay": "Inhibition of FTase in H-Ras transformed mouse NIH3T3 cells using Ras as substrate assessed as inhibition of substrate prenylation in presence of 10% bovine serum by immunoblot analysis", "format": "cell-based"}, "Mus musculus [4]": {"tested_on": "Mus musculus", "assay": "Antiangiogenic activity in human recombinant VEGF-stimulated CF1 mouse corneal model assessed as inhibition of new blood growth area at 50 mg/kg, sc prestimulated with VEGF followed by compound administration and measured on day 7 by slit lamp biomicroscopic analysis relative to control", "format": "functional", "settings": "CF1, 168 h, time 7 day"}, "HCT-116 [5]": {"tested_on": "HCT-116", "assay": "Antitumor activity against human HCT-116 cells xenografted in nu/nu CD1 mouse assessed as increase in life span at 12.5 mg/kg, sc preinoculated with cells for 5 days followed by once daily compound administration for 21 days and measured on day 25 relative to vehicle in time to 1 cm^3 tumor", "format": "functional", "settings": "HCT-116, 600 h, time 25 day"}, "[6]": {"assay": "Inhibition of FTase in human HCT-15 cells expressing high level of P-gp1 using Ras as substrate assessed as inhibition of substrate post-translation processing in presence of 10% FBS by immunoblot analysis", "format": "cell-based"}, "HCT-116 [7]": {"tested_on": "HCT-116", "assay": "Inhibition of VEGF mRNA expression in human HCT-116 cells incubated for 72 hrs by qRT-PCR analysis", "format": "functional, cell-based", "settings": "dose 1-30 µmol/L"}, "NIH3T3": {"tested_on": "NIH3T3", "assay": "Inhibition of anchorage-independent growth in H-Ras transformed mouse NIH3T3 cells assessed as inhibition of colony formation incubated for 14 days in presence of 10% bovine serum by imaging based soft agar colony formation assay", "format": "functional, cell-based"}, "HCT-116 [8]": {"tested_on": "HCT-116", "assay": "Antitumor activity against human HCT-116 cells xenografted in nu/nu CD1 mouse assessed as increase in life span at 25 mg/kg, sc preinoculated with cells for 5 days followed by once daily compound administration for 21 days and measured on day 25 relative to vehicle in time to 1 cm^3 tumor", "format": "functional", "settings": "HCT-116, 600 h, time 25 day"}, "HCT-116 [9]": {"tested_on": "HCT-116", "assay": "Antitumor activity against human HCT-116 cells xenografted in nu/nu CD1 mouse assessed as increase in life span at 50 mg/kg, sc preinoculated with cells for 5 days followed by once every 2 days compound administration for 11 times and measured on day 22 relative to vehicle in time to 1 cm3 tumor", "format": "functional", "settings": "HCT-116, 528 h, time 22 day"}, "[10]": {"assay": "Volume of distribution in dog at 2.5 mg/kg, iv", "format": "ADME, organism-based, Canis lupus familiaris", "settings": "in vivo"}, "Mus musculus [11]": {"tested_on": "Mus musculus", "assay": "Antiangiogenic activity in human recombinant bFGF-stimulated CF1 mouse corneal model assessed as inhibition of new blood growth area at 50 mg/kg, sc prestimulated with bFGF followed by compound administration and measured on day 5 by slit lamp biomicroscopic analysis relative to control", "format": "functional", "settings": "CF1, 120 h, time 5 day"}, "[12]": {"assay": "Half-life in dog at 2.5 mg/kg, iv", "format": "ADME, organism-based, Canis lupus familiaris", "settings": "in vivo"}, "[13]": {"assay": "Clearance in rat at 5 mg/kg, iv", "format": "ADME, organism-based", "settings": "in vivo"}, "[14]": {"assay": "Inhibition of GGTase in H-Ras transformed mouse NIH3T3 cells using Rap 1A as substrate assessed as inhibition of substrate prenylation in presence of 10% bovine serum by immunoblot analysis", "format": "cell-based"}, "[15]": {"assay": "Inhibition of FTase in human DLD-1 cells expressing moderate level of P-gp1 using Ras as substrate assessed as inhibition of substrate post-translation processing in presence of 10% FBS by immunoblot analysis", "format": "cell-based"}, "[16]": {"assay": "AUC in rat at 5 mg/kg, iv", "format": "ADME, organism-based", "settings": "in vivo"}, "HCT-116 [17]": {"tested_on": "HCT-116", "assay": "Antitumor activity against human HCT-116 cells xenografted in nu/nu CD1 mouse assessed as tumor volume at 6.25 mg/kg, sc preinoculated with cells for 5 days followed by once daily compound administration for 21 days and measured on day 25 (reference value: 1569 +/- 165 mm^3)", "format": "functional", "settings": "time 25 day"}, "[18]": {"assay": "Ratio of EC50 for inhibition of FTase in human HCT-15 cells expressing high level of P-gp1 using Ras as substrate assessed as inhibition of substrate post-translation processing in presence of 20% human serum to EC50 for inhibition of FTase in human HCT-15 cells expressing high level of P-gp1 using Ras as substrate assessed as inhibition of substrate post-translation processing in presence of 10% …", "settings": "condition cancer"}, "[19]": {"assay": "Cmax in rat at 25 mg/kg, po", "format": "ADME, organism-based", "settings": "in vivo"}, "HCT-116 [20]": {"tested_on": "HCT-116", "assay": "Antitumor activity against human HCT-116 cells xenografted in nu/nu CD1 mouse assessed as tumor volume at 100 mg/kg, sc preinoculated with cells for 5 days followed by once every 2 days compound administration for 11 times and measured on day 22 (reference value: 1557 +/- 370 mm^3)", "format": "functional", "settings": "time 22 day"}, "HCT-116 [21]": {"tested_on": "HCT-116", "assay": "Inhibition of anchorage-independent growth in human HCT-116 cells assessed as inhibition of colony formation incubated for 14 days in presence of 10% FBS by imaging based soft agar colony formation assay", "format": "functional, cell-based"}, "[22]": {"assay": "AUC in rat at 25 mg/kg, po", "format": "ADME, organism-based", "settings": "in vivo"}, "[23]": {"assay": "Oral bioavailability in rat at 5 mg/kg", "format": "ADME, organism-based", "settings": "in vivo"}, "[24]": {"assay": "Inhibition of recombinant bovine FTase incubated for 30 mins in presence of [3H]FPP by SPA based Topcount scintillation plate reader analysis", "set-up": "species or system Bos taurus"}, "[25]": {"assay": "Selectivity ratio of EC50 for inhibition of GGTase in H-Ras transformed mouse NIH3T3 cells using Rap 1A as substrate assessed as inhibition of substrate prenylation in presence of 10% bovine serum to EC50 for inhibition of FTase in H-Ras transformed mouse NIH3T3 cells using Ras as substrate assessed as inhibition of substrate prenylation in presence of 10% bovine serum", "settings": "condition cancer"}, "HCT-116 [26]": {"tested_on": "HCT-116", "assay": "Antitumor activity against human HCT-116 cells xenografted in nu/nu CD1 mouse assessed as reduction in tumor volume by measuring test to control ratio at 50 mg/kg, sc preinoculated with cells for 5 days followed by once every 2 days compound administration for 11 times and measured on day 22", "format": "functional", "settings": "time 22 day"}, "Mus musculus [27]": {"tested_on": "Mus musculus", "assay": "Antiangiogenic activity in human recombinant VEGF-stimulated CF1 mouse corneal model assessed as inhibition of new blood growth area at 100 mg/kg, sc prestimulated with VEGF followed by compound administration and measured on day 7 by slit lamp biomicroscopic analysis relative to control", "format": "functional", "settings": "CF1, 168 h, time 7 day"}, "HCT-116 [28]": {"tested_on": "HCT-116", "assay": "Antitumor activity against human HCT-116 cells xenografted in nu/nu CD1 mouse assessed as tumor volume at 25 mg/kg, sc preinoculated with cells for 5 days followed by once daily compound administration for 21 days and measured on day 25 (reference value: 1569 +/- 165 mm^3)", "format": "functional", "settings": "time 25 day"}, "[29]": {"assay": "Inhibition of FTase in human HCT-116 cells expressing low level of P-gp1 using Ras as substrate assessed as inhibition of substrate post-translation processing in presence of 10% FBS by immunoblot analysis", "format": "cell-based"}, "[30]": {"assay": "AUC in dog at 2.5 mg/kg, po", "format": "ADME, organism-based, Canis lupus familiaris", "settings": "in vivo"}, "HCT-116 [31]": {"tested_on": "HCT-116", "assay": "Antitumor activity against human HCT-116 cells xenografted in nu/nu CD1 mouse assessed as tumor volume at 50 mg/kg, sc preinoculated with cells for 5 days followed by once every 2 days compound administration for 11 times and measured on day 22 (reference value: 1557 +/- 370 mm^3)", "format": "functional", "settings": "time 22 day"}, "[32]": {"assay": "Inhibition of recombinant human FTase incubated for 30 mins in presence of [3H]FPP by SPA based Topcount scintillation plate reader analysis"}, "HCT-116 [33]": {"tested_on": "HCT-116", "assay": "Inhibition of VEGF secretion in human HCT-116 cells incubated for 72 hrs by ELISA", "format": "functional, cell-based", "settings": "dose 0.1-3 µmol/L"}, "Bos taurus": {"organism": "Bos taurus", "assay": "Selectivity index, ratio of IC50 for inhibition of bovine GGTase 1 to IC50 for inhibition of recombinant bovine FTase"}}}
{"smiles": "Cn1cncc1[C@](O)(COc1ccc(C#N)cc1-c1ccc(OC(F)(F)F)cc1)c1ccc(C#N)cc1", "note": "[ABT-100]", "values": [{"measurement": "bioavailability", "setting": "[1]", "value": 35.1, "unit": "%"}, {"measurement": "clearance", "setting": "[2]", "value": 5.67, "unit": "mL/min/kg"}, {"measurement": "EC50", "setting": "[3]", "value": 0.73, "unit": "nM"}, {"measurement": "inhibition in vivo at 50 mg/kg", "setting": "Mus musculus [4]", "value": 25, "unit": "%"}, {"measurement": "ILS at 12.5 mg/kg", "setting": "HCT-116 [5]", "value": 61, "unit": "%"}, {"measurement": "EC50", "setting": "[6]", "value": 0.2, "unit": "nM"}, {"measurement": "inhibition", "setting": "HCT-116 [7]", "value": "Dose-Dependent Effect"}, {"measurement": "EC50", "setting": "NIH3T3; NIH3T3, 336 h", "value": 0.9, "unit": "nM"}, {"measurement": "inhibition", "setting": "NIH3T3; time 14.0 day", "value": "Dose-Dependent Effect"}, {"measurement": "ILS at 25 mg/kg", "setting": "HCT-116 [8]", "value": 100, "unit": "%"}, {"measurement": "ILS at 50 mg/kg", "setting": "HCT-116 [9]", "value": 32, "unit": "%"}, {"measurement": "Vd", "setting": "[10]", "value": 3.3, "unit": "L/kg"}, {"measurement": "inhibition in vivo at 50 mg/kg", "setting": "Mus musculus [11]", "value": 34, "unit": "%"}, {"measurement": "half-life", "setting": "[12]", "value": 6.8, "unit": "h"}, {"measurement": "clearance", "setting": "[13]", "value": 16.7, "unit": "mL/min/kg"}, {"measurement": "EC50", "setting": "[14]", "value": "> 30000", "unit": "nM"}, {"measurement": "EC50", "setting": "[15]", "value": 0.26, "unit": "nM"}, {"measurement": "AUC", "setting": "[16]", "value": 3010, "unit": "ng·h/mL"}, {"measurement": "Activity", "setting": "HCT-116 [17]", "value": 899, "unit": "mm3"}, {"measurement": "Ratio EC50", "setting": "[18]", "value": 1.5}, {"measurement": "Cmax", "setting": "[19]", "value": 740, "unit": "ng/mL"}, {"measurement": "Activity", "setting": "HCT-116 [20]", "value": 691, "unit": "mm3"}, {"measurement": "EC50", "setting": "HCT-116 [21]; HCT-116, 336 h", "value": 6.1, "unit": "nM"}, {"measurement": "inhibition", "setting": "HCT-116 [21]; time 14.0 day", "value": "Dose-Dependent Effect"}, {"measurement": "AUC", "setting": "[22]", "value": 4620, "unit": "ng·h/mL"}, {"measurement": "bioavailability", "setting": "[23]", "value": 15.1, "unit": "%"}, {"measurement": "IC50", "setting": "[24]", "value": 0.13, "unit": "nM"}, {"measurement": "Ratio EC50", "setting": "[25]", "value": ">41000"}, {"measurement": "T/C", "setting": "HCT-116 [26]", "value": 65, "unit": "%"}, {"measurement": "inhibition in vivo at 100 mg/kg", "setting": "Mus musculus [27]", "value": 39, "unit": "%"}, {"measurement": "Activity", "setting": "HCT-116 [28]", "value": 553, "unit": "mm3"}, {"measurement": "EC50", "setting": "[29]", "value": 0.43, "unit": "nM"}, {"measurement": "AUC", "setting": "[30]", "value": 2840, "unit": "ng·h/mL"}, {"measurement": "Activity", "setting": "HCT-116 [31]", "value": 873, "unit": "mm3"}, {"measurement": "IC50", "setting": "[32]", "value": 0.05, "unit": "nM"}, {"measurement": "inhibition", "setting": "HCT-116 [33]", "value": "Dose-Dependent Effect"}, {"measurement": "Ratio IC50", "setting": "Bos taurus", "value": "> 100000"}]}
